From PubChem BioAssay AID1259407 (Chemical Carcinogenesis Research Information System (CCRIS), 2018) come the findings set out here.

This series concerns CCRIS mutagenicity, Ames/micronucleus/aberration tests. The series is described as follows: CCRIS mutagenicity studies.
Where [1] appears, read: Test System: AMES SALMONELLA TYPHIMURIUM, Strain/Indicator: TA98, Metabolic Activation: NONE, Method: STANDARD PLATE.
Where [2] appears, read: Test System: AMES SALMONELLA TYPHIMURIUM, Strain/Indicator: TA98, Metabolic Activation: RAT, LIVER, S-9, AROCLOR 1254, Method: STANDARD PLATE.
The mark [3] stands for this setting: Test System: AMES SALMONELLA TYPHIMURIUM, Strain/Indicator: TA100, Metabolic Activation: NONE, Method: PREINCUBATION
[4] abbreviates: Test System: AMES SALMONELLA TYPHIMURIUM, Strain/Indicator: TA100, Metabolic Activation: NONE, Method: STANDARD PLATE.
[5] abbreviates: Test System: AMES SALMONELLA TYPHIMURIUM, Strain/Indicator: TA100, Metabolic Activation: RAT, LIVER, S-9, AROCLOR 1254, Method: STANDARD PLATE.
[6] abbreviates: Test System: AMES SALMONELLA TYPHIMURIUM, Strain/Indicator: TA1535, Metabolic Activation: NONE, Method: STANDARD PLATE.
Where [7] appears, read: Test System: AMES SALMONELLA TYPHIMURIUM, Strain/Indicator: TA1535, Metabolic Activation: RAT, LIVER, S-9, AROCLOR 1254, Method: STANDARD PLATE.
The mark [8] stands for this setting: Test System: AMES SALMONELLA TYPHIMURIUM, Strain/Indicator: TA1537, Metabolic Activation: NONE, Method: STANDARD PLATE.
The mark [9] stands for this setting: Test System: AMES SALMONELLA TYPHIMURIUM, Strain/Indicator: TA1537, Metabolic Activation: RAT, LIVER, S-9, AROCLOR 1254, Method: STANDARD PLATE.

The source made the active and inactive calls. No rule for the calls is given here.

For `O=C(Cl)c1ccc([N+](=O)[O-])cc1`, the mutagenic call was “inactive; negative. precipitation observed in culture medium at all doses tested” (End Point: In vitro chromosomal aberrations, Test System: Chinese hamster lung (CHL/IU) cells, Metabolic Activation: None); “inactive; negative. precipitation observed in culture medium at all doses tested” (End Point: In vitro chromosomal aberrations, Test System: Chinese hamster lung (CHL/IU) cells, Metabolic Activation: Rat, Liver, S9, Phenobarbital and 5,6-benzoflavone); “active; positive” (Test System: AMES SALMONELLA TYPHIMURIUM, Strain/Indicator: TA98, Metabolic Activation: HAMSTER, LIVER, S-9, AROCLOR 1254 (10%), Method: PREINCUBATION); “inactive; negative” (Test System: AMES SALMONELLA TYPHIMURIUM, Strain/Indicator: TA98, Metabolic Activation: HAMSTER, LIVER, S-9, AROCLOR 1254, Method: STANDARD PLATE); “inactive; negative” under setting [1]; “active; positive” (Test System: AMES SALMONELLA TYPHIMURIUM, Strain/Indicator: TA98, Metabolic Activation: RAT, LIVER, S-9, AROCLOR 1254 (10%), Method: PREINCUBATION). Also, the mutagenic call was “inactive; negative” under setting [2]; “inactive; negative” (Test System: AMES SALMONELLA TYPHIMURIUM, Strain/Indicator: TA98, Metabolic Activation: RAT, LIVER, S-9, KANECHLOR 500, Method: PREINCUBATION); “active; positive” (Test System: AMES SALMONELLA TYPHIMURIUM, Strain/Indicator: TA100, Metabolic Activation: HAMSTER, LIVER, S-9, AROCLOR 1254 (10%), Method: PREINCUBATION); “inactive; negative” (Test System: AMES SALMONELLA TYPHIMURIUM, Strain/Indicator: TA100, Metabolic Activation: HAMSTER, LIVER, S-9, AROCLOR 1254, Method: STANDARD PLATE); “active; positive” under setting [3]; “inactive; negative” under setting [4]. Besides, the mutagenic call runs as follows: (Test System: AMES SALMONELLA TYPHIMURIUM, Strain/Indicator: TA100, Metabolic Activation: RAT, LIVER, S-9, AROCLOR 1254 (10%), Method: PREINCUBATION) “active; positive”; under setting [5], “inactive; negative”; (Test System: AMES SALMONELLA TYPHIMURIUM, Strain/Indicator: TA100, Metabolic Activation: RAT, LIVER, S-9, KANECHLOR 500, Method: PREINCUBATION) “active; positive”; (Test System: AMES SALMONELLA TYPHIMURIUM, Strain/Indicator: TA1535, Metabolic Activation: HAMSTER, LIVER, S-9, AROCLOR 1254 (10%), Method: PREINCUBATION) “active; positive”; (Test System: AMES SALMONELLA TYPHIMURIUM, Strain/Indicator: TA1535, Metabolic Activation: HAMSTER, LIVER, S-9, AROCLOR 1254, Method: STANDARD PLATE) “inactive; negative”; (Test System: AMES SALMONELLA TYPHIMURIUM, Strain/Indicator: TA1535, Metabolic Activation: NONE, Method: PREINCUBATION) “active; positive”. Also, the mutagenic call runs as follows: under setting [6], “inactive; negative”; (Test System: AMES SALMONELLA TYPHIMURIUM, Strain/Indicator: TA1535, Metabolic Activation: RAT, LIVER, S-9, AROCLOR 1254 (10%), Method: PREINCUBATION) “active; positive”; under setting [7], “inactive; negative”; (Test System: AMES SALMONELLA TYPHIMURIUM, Strain/Indicator: TA1537, Metabolic Activation: HAMSTER, LIVER, S-9, AROCLOR 1254 (10%), Method: PREINCUBATION) “active; positive”; (Test System: AMES SALMONELLA TYPHIMURIUM, Strain/Indicator: TA1537, Metabolic Activation: HAMSTER, LIVER, S-9, AROCLOR 1254, Method: STANDARD PLATE) “inactive; negative”; (Test System: AMES SALMONELLA TYPHIMURIUM, Strain/Indicator: TA1537, Metabolic Activation: NONE, Method: PREINCUBATION) “active; positive”. Moreover, the mutagenic call reads like this: under setting [8], “inactive; negative”; (Test System: AMES SALMONELLA TYPHIMURIUM, Strain/Indicator: TA1537, Metabolic Activation: RAT, LIVER, S-9, AROCLOR 1254 (10%), Method: PREINCUBATION) “active; positive”; under setting [9], “inactive; negative”; (Test System: AMES SALMONELLA TYPHIMURIUM, Strain/Indicator: TA1538, Metabolic Activation: HAMSTER, LIVER, S-9, AROCLOR 1254, Method: STANDARD PLATE) “inactive; negative”; (Test System: AMES SALMONELLA TYPHIMURIUM, Strain/Indicator: TA1538, Metabolic Activation: NONE, Method: STANDARD PLATE) “inactive; negative”; (Test System: AMES SALMONELLA TYPHIMURIUM, Strain/Indicator: TA1538, Metabolic Activation: RAT, LIVER, S-9, AROCLOR 1254, Method: STANDARD PLATE) “inactive; negative”. Besides, the mutagenic call was “active; positive” (Test System: Ames Salmonella typhimurium, Strain/Indicator: TA100, Metabolic Activation: Rat, Liver, S9, Sodium phenobarbital and 5,6-benzoflavone (10%), Method: Preincubation); “active; positive” (Test System: Ames Salmonella typhimurium, Strain/Indicator: TA1535, Metabolic Activation: None, Method: Preincubation); “active; positive” (Test System: Ames Salmonella typhimurium, Strain/Indicator: TA1535, Metabolic Activation: Rat, Liver, S9, Sodium phenobarbital and 5,6-benzoflavone (10%), Method: Preincubation); “inactive; negative” (Test System: Ames Salmonella typhimurium, Strain/Indicator: TA1537, Metabolic Activation: None, Method: Preincubation); “inactive; negative” (Test System: Ames Salmonella typhimurium, Strain/Indicator: TA1537, Metabolic Activation: Rat, Liver, S9, Sodium phenobarbital and 5,6-benzoflavone (10%), Method: Preincubation); “inactive; negative” (Test System: E. coli, Strain/Indicator: WP2uvrA/pKM101, Metabolic Activation: None, Method: Preincubation). Further, the mutagenic call runs as follows: (Test System: E. coli, Strain/Indicator: WP2uvrA/pKM101, Metabolic Activation: Rat, Liver, S9, Sodium phenobarbital and 5,6-benzoflavone (10%), Method: Preincubation) “inactive; negative”; (Test System: MOUSE LYMPHOMA, Strain/Indicator: L5178Y (TK+/TK-), Metabolic Activation: NONE, Method: SUSPENSION/PLATE) “inactive; negative. reevaluation of results: negative”; (Test System: MOUSE LYMPHOMA, Strain/Indicator: L5178Y (TK+/TK-), Metabolic Activation: RAT, LIVER, S-9, AROCLOR 1254, Method: SUSPENSION/PLATE) “inactive; negative. reevaluation of results: negative”.

As for `Cc1ccc(OS(=O)(=O)c2cccc3cccnc23)c([N+](=O)[O-])c1`, the mutagenic call is, setting by setting: under setting [1], “active; positive”; under setting [2], “active; positive”; under setting [4], “active; positive”; under setting [5], “active; positive”; under setting [6], “inactive; negative”; under setting [7], “inactive; negative”. For the same compound, the mutagenic call reads like this: under setting [8], “active; positive”; under setting [9], “active; positive”.

For `CC12OOC1(CO)Oc1ccccc12` (stereo unspecified), the mutagenic call under setting [3] is “inactive; negative”.

With `COC1=CC(=O)c2c(nc(C)c3c4c([nH]c23)CCCC4)C1=O`, the mutagenic call was “inactive; negative” (Test System: AMES SALMONELLA TYPHIMURIUM, Strain/Indicator: TA97A, Metabolic Activation: NONE, Method: STANDARD PLATE); “inactive; negative” (Test System: AMES SALMONELLA TYPHIMURIUM, Strain/Indicator: TA97A, Metabolic Activation: RAT LIVER S-9, AROCLOR 1254, Method: STANDARD PLATE); “active; positive” under setting [1]; “active; positive” (Test System: AMES SALMONELLA TYPHIMURIUM, Strain/Indicator: TA98, Metabolic Activation: RAT LIVER S-9, AROCLOR 1254, Method: STANDARD PLATE); “inactive; negative” under setting [4]; “inactive; negative” (Test System: AMES SALMONELLA TYPHIMURIUM, Strain/Indicator: TA100, Metabolic Activation: RAT LIVER S-9, AROCLOR 1254, Method: STANDARD PLATE). Besides, the mutagenic call by setting is: (Test System: AMES SALMONELLA TYPHIMURIUM, Strain/Indicator: TA102, Metabolic Activation: NONE, Method: STANDARD PLATE) “inactive; negative”; (Test System: AMES SALMONELLA TYPHIMURIUM, Strain/Indicator: TA102, Metabolic Activation: RAT LIVER S-9, AROCLOR 1254, Method: STANDARD PLATE) “inactive; negative”.
